Measured values: patent US20160102336A1, “FLUORESCENT PROBE FOR DETECTING ACTIVITY OF CALPAIN” (THE UNIVERSITY OF TOKYO, priority 2013, published 2016)
*1 amine or outer side, *2 acyl side, *3 side chain or, on linkers, in order; H or OH if unused. Where a SMILES comes first, the peptide text is derived from it. The star is where a group is joined. X1 = Cc1ccccc1C1=C2C=CC(=N)C=C2[Si](C)(C)c2cc(N*)ccc21; Suc = O=C(CCC(=O)[*:2])[*:1]

Key:
[1] = tested on: Calpain activity in HeLa cells; assay: Imaging of calpain activity in HeLa cells (confocal microscope); assay type: cell-based
Protocol: (§1) Hela cells were incubated for 10 minutes at 37° C. using (a) Hank's balanced salt solution (HBSS) containing DMSO as a control, and (b) HBSS containing 20-11M calpeptin, and further incubation for 20 minutes was carried out in 2-μM Suc-LLVY-SiR600. A fluorescence image and a differential interference image were then taken using a confocal microscope. The scale bar in the drawings is 20 μm.
(§2) Statistical analysis was carried out using Student's t-test (n=18).

[2] = molecular target: T1, calpain-1 (Homo sapiens, UniProt P07384); assay: Evaluation as a calpain fluorescent probe (fluorescence spectrum after addition of calpain-1); assay type: biochemical
T1 sequence (P07384 1-714): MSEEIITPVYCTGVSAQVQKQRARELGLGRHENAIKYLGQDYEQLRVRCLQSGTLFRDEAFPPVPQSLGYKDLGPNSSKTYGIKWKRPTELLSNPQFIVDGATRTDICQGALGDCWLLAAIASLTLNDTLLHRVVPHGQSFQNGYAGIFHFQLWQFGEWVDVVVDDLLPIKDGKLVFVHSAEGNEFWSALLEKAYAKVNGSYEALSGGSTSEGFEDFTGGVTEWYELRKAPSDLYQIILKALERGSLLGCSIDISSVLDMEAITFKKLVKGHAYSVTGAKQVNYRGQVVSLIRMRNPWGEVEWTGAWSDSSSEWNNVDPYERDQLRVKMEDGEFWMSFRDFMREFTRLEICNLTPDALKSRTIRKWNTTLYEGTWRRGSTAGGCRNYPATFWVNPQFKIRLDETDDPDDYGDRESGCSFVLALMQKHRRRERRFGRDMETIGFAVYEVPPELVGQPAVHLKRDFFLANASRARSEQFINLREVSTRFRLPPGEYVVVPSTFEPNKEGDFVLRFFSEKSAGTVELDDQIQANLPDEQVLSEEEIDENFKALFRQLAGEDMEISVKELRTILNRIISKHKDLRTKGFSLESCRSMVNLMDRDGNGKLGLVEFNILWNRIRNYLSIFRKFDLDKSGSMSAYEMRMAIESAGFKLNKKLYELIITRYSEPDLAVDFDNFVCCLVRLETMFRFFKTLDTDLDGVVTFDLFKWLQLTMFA
T1 sequence (P04632 1-268 partner): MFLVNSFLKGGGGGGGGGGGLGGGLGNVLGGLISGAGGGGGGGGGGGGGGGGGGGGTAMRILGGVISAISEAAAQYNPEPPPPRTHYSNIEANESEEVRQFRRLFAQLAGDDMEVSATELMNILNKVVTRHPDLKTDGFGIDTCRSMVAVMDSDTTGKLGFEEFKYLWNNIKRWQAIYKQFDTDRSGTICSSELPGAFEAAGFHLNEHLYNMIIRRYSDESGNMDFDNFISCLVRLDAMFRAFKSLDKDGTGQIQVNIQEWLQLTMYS
Protocol: FIGS. 1(c) to 1(e) show the fluorescence spectrum 10 to 60 minutes later from addition of 5 μg calpain-1 to the Suc-LLVY-SiR600 solution (2 μM).
In FIGS. 1(b) to 1(e), the reaction was carried out in a 0.75-mL of 20-mM HEPES buffer solution (pH 7.4) containing 100-μM DTT, 10% glycerol, 0.1% CHAPS, 100-mM NaCl, 1-mM EDTA, and 1.5-mM CaCl2, and containing 1% DMSO as a cosolvent.
In FIG. 1(d), the reaction was carried out in the absence of 1.5-mM CaCl2, and in FIG. 1(e), the reaction was carried out in the presence of 1-μM calpeptin.
The reaction temperature was 25° C. in FIGS. 1(b), 1(d), and 1(e), and 37° C. in FIG. 1(c).
In FIGS. 2(b) and 2(c), the reaction was carried out in a 0.75-mL of 20-mM HEPES buffer solution (pH 7.4) containing 100-μM DTT, 10% glycerol, 0.1% CHAPS, 100-mM NaCl, 1-mM EDTA, and 1.5-mM CaCl2, and containing 1% DMSO as a cosolvent. In FIG. 2(c), the reaction was carried out in the presence of 1-μM calpeptin, and in FIG. 2(b), the reaction was carried out in the absence of calpeptin.
The reaction temperature was 25° C. in FIGS. 2(b) and 2(c), and the excitation wavelength was 593 nm.

[3] = Measurement of the optical characteristics; assay type: physicochemical; conditions: for Absmax / Emmax / Φn / ε: 0.1 sodium phosphate buffer with pH 3 containing 1% DMSO
Protocol: The optical characteristics of Suc-LLVY-SiR600 and Boc-LM-SiR600 were measured in a 0.1 sodium phosphate buffer with pH 3 containing 1% DMSO.

[4] = tested on: Calpain activity in A549 cells; assay: Imaging of calpain activity in A549 cells (confocal microscope); assay type: cell-based; conditions: 2-μM Suc-LLVY-SiR600, 20 minutes, HBSS, 37° C.
Protocol: as §1, with “A549” for “Hela”, “20-μM” for “20-11M”
as §2

Compound	visualization of calpain activity in HeLa cells ([1]; 2-μM Suc-LLVY-SiR600, 20 minutes, HBSS, 37° C.)	increase in fluorescence in a solution that does not contain Ca^2+ ([2]; probe 2 μM, 5 μg calpain-1, 10 to 60 minutes, absence of 1.5-mM CaCl2, 25° C.)	fluorescence after the reaction with calpain-1 ([2]; probe 2 μM, 5 μg calpain-1, 180 minutes, HEPES buffer pH 7.4 with 1.5-mM CaCl2, 25° C., excitation 593 nm)	fluorescence before the reaction with calpain-1 ([2]; probe 2 μM, excitation 593 nm, before addition of calpain-1, 25° C.)	Absmax [3] [nm]	Emmax [3] [nm]	Φn [3]	ε [3]	absorption of light near maximum absorption (593 nm) of 2MeSiR600 ([3]; near 593 nm)	visualization of calpain activity in A549 cells [4]	fluorescence intensity in HeLa cells on addition of calpeptin ([1]; 20-11M calpeptin 10 minutes at 37° C., then 2-μM Suc-LLVY-SiR600 20 minutes)	increase in fluorescence of Boc-LM-SiR600 with calpain-1 when calpeptin was added ([2]; 1-μM calpeptin, Boc-LM-SiR600 2 μM, 5 μg calpain-1, 25° C.)	increase in fluorescence of Suc-LLVY-SiR600 with calpain-1 when calpeptin is added ([2]; 1-μM calpeptin, Suc-LLVY-SiR600 2 μM, 5 μg calpain-1, 25° C.)
Cc1ccccc1C1=C2C=CC(=N)C=C2[Si](C)(C)c2cc(NC(=O)[C@H](Cc3ccc(O)cc3)NC(=O)[C@@H](NC(=O)[C@H](CC(C)C)NC(=O)[C@H](CC(C)C)NC(=O)CCC(=O)O)C(C)C)ccc21 [Suc-LLVY-SiR600] (Suc-LLVY-X1)	calpain activity in HeLa cells can be monitored	an increase in fluorescence does not occur	high-intensity fluorescence was observed	fluorescence was mostly unobserved	497	590	0.03	25,000 M^−1cm^−1	did not absorb light	calpain activity in cells was successfully visualized	–	–	–
CCCC[C@@H](C=O)NC(=O)[C@H](CC(C)C)NC(=O)OCc1ccccc1 [calpeptin, reference compound]	–	–	–	–	–	–	–	–	–	–	fluorescence intensity in the cells was reduced	an increase in fluorescence did not occur	an increase in fluorescence does not occur
2Me SiR600 [reference compound]	–	–	–	–	593	613	0.38	91,000 M^−1cm^−1	–	–	–	–	–
